From patent US20250171511A1, “ANTIVIRAL PEPTIDES AND METHODS OF USE THEREOF” (Versitech Limited, priority 2021, published 2025)
Entries after “also recorded” stand apart in the source; their conditions may differ. Read-outs that look alike come from different tables or passages of the source. Where no end group is shown, it is not given here. 4MPA = not defined here

Assays:
[1] = system: HRV-B14; assay: HRV-B14 infection, supernatant viral RNA by RT-qPCR; format: cell-based; settings: RD or H1-Hela cells, 30 hpi
Method: (§1) Viruses were treated by 4H30 for infection in RD or H1-Hela cells. Viruses, HRV-1B and HRV-B14 were treated by 4H30 in PBS for 30 min and then the treated viruses were added to RD or H1-Hela cells for infection. After 1 h infection, the un-infected viruses were removed and fresh media with the indicated concentration of 4H30 was added to cells for viral culture. The supernatant viruses were measured at 30 hpi by RT-qPCR. Viral RNA copy (%) was the viral RNA of 4H30-treated virus normalized to that of untreated virus (0). […] The primers for detecting the viral RNA copies: HRV-F1: 5′-[…] -3′; HRV-F2: 5′-[…] -3′, HRV-R: 5′-[…] -3′; HRV-Probe: 5′ HEX-[…] -1ABKFQ 3′ (Y=C or T, K=G or T). The supernatant viruses were measured at 30 hpi.

[2] = system: SARS-CoV-2 (B.1. 617.2, Delta); assay: Post-exposure antiviral activity in hamsters, Delta; format: in vivo, hamster; settings: 0.5 mg kg^−1, post exposure
[3] = system: SARS-CoV-2 (B.1.163); assay: Post-exposure antiviral activity in hamsters, B.1.163; settings: hamster, in vivo
[4] = system: H1N1 virus; assay: H1N1 plaque reduction assay; format: cell-based; settings: virus treated in PBS 30 min, VeroE6
[5] = system: HRV-1B; assay: HRV-1B infection, supernatant viral RNA by RT-qPCR; format: cell-based; settings: RD or H1-Hela cells, 30 hpi
Method: as §1

[6] = system: VeroE6 cells; assay: MTT cytotoxicity assay in VeroE6 cells; format: cell-based
Method: (§2) Cytotoxicity of peptides was determined by the detection of 50% cytotoxic concentration (CC50) using a tetrazolium-based colorimetric MTT assay (H. Zhao, et al., Sci Rep, 6 (2016) 22008). Briefly, cells were seeded in 96-well cell culture plate at an initial density of 4×10^4 cells per well in DMEM supplemented with 10% FBS and incubated for overnight. Cell culture media were removed and then DMEM supplemented with various concentrations of peptides and 1% FBS were added to each well. After 24 h incubation at 37° C., MTT solution (5 mg ml^−1, 10 μl per well) was added to each well for incubation at 37° C. for 4 h. Then, 100 μl of 10% SDS in 0.01M HCl was added to each well. After further incubation at room temperature with shaking overnight, the plates were read at OD570 using VictorTM X3 Multilabel Reader (PerkinElmer, USA). Cell culture wells without peptides were used as the experiment control and medium only served as a blank control.

[7] = ELISA binding of 4H30 to chondroitin sulfate; settings: compared with BSA
[8] = intranasal
[9] = system: fusion mediated by spike-Calu-3 cells; assay: Spike mediated cell fusion assay with Calu-3 cells; format: cell-based; settings: TMPRSS2 pathway
[10] = system: SARS-CoV-2; assay: Antiviral activity of GAG-treated 4H30 (viral RNA copy); format: cell-based
[11] = system: SARS-CoV-2; assay: Viral release assay; format: cell-based
[12] = system: SARS-CoV-2; format: cell-based
[13] = system: SARS-CoV-2; assay: Viral attachment/entry and replication in VeroE6 cells by RT-qPCR; format: cell-based
[14] = system: Calu-3 cells; assay: MTT cytotoxicity assay in Calu-3 cells; format: cell-based
Method: as §2

[15] = ELISA binding of 4H30 to heparan sulfate; settings: compared with BSA
[16] = system: spike-ACE2 mediated fusion; format: cell-based; settings: endocytosis pathway
[17] = system: SARS-CoV-2 (B.1.1.63); assay: Post-infection treatment, viral titers in supernatants; settings: 4H30 added at 6 hpi
[18] = system: SARS-CoV-2 (B.1.1.63); assay: Pre-exposure antiviral activity in hamsters; format: in vivo, hamster
[19] = system: SARS-CoV-2; assay: SARS-CoV-2 replication in Calu-3 cells pretreated by 4H30; format: cell-based
[20] = system: VeroE6 cells; assay: Endosomal acidification assay; format: cell-based
Method: Endosomal acidification was detected with a pH-sensitive dye (pHrodo green dextran, Invitrogen, Cat^# P35365) according to the manufacturer's instructions as previously described but with slight modification (H. Zhao, et al., Nat Commun, 9 (2018) 2358). First, VeroE6 cells were treated with DMEM, 4H30 (25.0 μg ml^−1), or bafilomycin A1 (50.0 nM) at 4° C. for 15 min. Second, VeroE6 cells were added with 100 μg ml^−1 of pH-sensitive dye and DAPI and then incubated at 4° C. for 15 min. Before taking images, cells were further incubated at 37° C. for 15 min and then cells were washed twice with PBS. Finally, PBS was added to cells and images were taken immediately with confocal microscope (Carl Zeiss LSM 800, Germany).

With “GAICHPVFCPRRYKQIGTCGLPGTKCCKKP-4MPA (cysteine pairing not given here; reading uncertain; also: printed as GAICHPVFCPRRYKQIGTCGLPGTKCCKKP-4MPA) [Peptide 4H30]” the “inhibition of HRV-B14, viral RNA copy” value [1] was “effectively inhibited”, the “SARS-CoV-2 replication in hamsters” value [2] was “significantly inhibited” and the “syncytium formation and bronchial epithelial pathology in lungs” value [2] was “reduced the syncytium formation and bronchial epithelial pathology”. The “SARS-CoV-2 replication in lungs” value [3] was “significantly inhibit”, the H1N1 virus replication [4] was “significantly inhibited” and the “inhibition of HRV-1B, viral RNA copy” value [5] was “effectively inhibited”. The TC50 [6] was “higher than 400 μg ml^−1”, the “binding to chondroitin sulfate (CS)” value [7] was “effectively bind” and the “pathological and body weight changes” value ([8]; 4 dpi) was “did not cause pathological and body weight changes”. For the same substance, the “histopathological and body weight changes” value ([8]; 40 dpi, compared with mock) was “no significant histopathological and body weight changes”, the “fusion mediated by spike-Calu-3 cells” value [9] was “did not inhibit” and the “antiviral activity of GAG-treated 4H30” value ([10]; 4H30 treated by 1250 ng/ml of CS or HS) was “significantly reduced”. The “antiviral activity of GAG-treated 4H30” value ([10]; CS or HS in physiological concentration (50˜100 ng/ml)) was “still significantly inhibit viral replication”, the intracellular replicative process [11] was “not on the intracellular replicative process” and the “viral release, viral load in supernatants” value [11] was “significantly inhibit viral release; also recorded: significantly inhibited SARS-CoV-2 release”. For the same substance, the “antiviral activity of 4H30 on viral release” value ([11]; 4H30 pretreated by CS or HS) was “significantly reduced”, the “inhibitory activity of 4H30 on SARS-CoV-2 release” value ([11]; 4H30 with BSA) was “did not significantly affect” and the “attachment of SARS-CoV-2 to cells” value ([12]; 4H30 pretreated by GAGs) was “significantly reduced”. For the same substance, the “attachment of SARS-CoV-2 to cells” value ([12]; A549 (ACE2^−) cells treated by 4H30) was “significantly increased”, the “attachment of SARS-CoV-2 to cells” value ([12]; Calu-3 (ACE2^+) cells treated by 4H30) was “significantly increased” and the “attachment of SARS-CoV-2 to cells” value ([12]; cells pretreated by Chondroitinase ABC and Heparinase) was “significantly reduced”. For the same substance, the “viral load increase at 6 hpi compared with 1 hpi” value [13] was 13 fold, the “viral attachment and/or entry” value ([13]; cells pretreated by 4H30) was “significantly increased” and the “viral attachment and/or entry” value ([13]; virus pretreated by 4H30) was “significantly increased”. For the same substance, the “SARS-CoV-2 attachment to cells” value ([13]; at 4 degrees) was “increase SARS-CoV-2 attachment”, the “viral load at 6 hpi compared with 1 hpi” value ([13]; cell lysate, virus pretreated by 4H30) was “no significant increase in viral load” and the TC50 [14] was “higher than 400 μg ml^−1”. The “binding to heparan sulfate (HS)” value [15] was “effectively bind”, the “spike-ACE2 mediated cell fusion” value [16] was “blocking of spike-ACE2 mediated fusion” and the SARS-CoV-2 replication ([17]; Calu-3 cells) was “significantly inhibited”. The SARS-CoV-2 replication ([17]; VeroE6 cells) was “significantly inhibited”, the “syncytia and epithelial cell disorder in bronchial tree” value ([18]; 4H30-0.05) was “not found” and the “SARS-CoV-2 replication in lungs” value ([18]; hamster, in vivo) was “significantly inhibited SARS-CoV-2 replication”. The antiviral activity ([18]; hamster, in vivo) was “did not show antiviral activity”, the “reduction of viral replication” value ([18]; hamster, in vivo) was 2.3 fold and the “viral replication in lungs” value ([18]; hamster, in vivo) was “significantly inhibited viral replication”. For the same substance, the SARS-CoV-2 replication [19] was “did not increase SARS-CoV-2 replication” and the endosomal acidification [20] was “inhibition of endosomal acidification”.
